The results in this text go back to ChEMBL document CHEMBL5725316, “Substituted imidazo[1,2-a]pyrazines as LSD1 inhibitors” (2017).

Structures are written as SMILES.

This test deals with Lysine-specific histone demethylase 1A (Homo sapiens, UniProt O60341). Nature of the test: LANCE LSD1/KDM1A Demethylase Assay: 10 μL of 1 nM LSD-1 enzyme (ENZO BML-SE544-0050) in the assay buffer (50 mM Tris, pH 7.5, 0.01% Tween-20, 25 mM NaCl, 5 mM DTT) were preincubated for 1 hour at 25° C. with 0.8 μL compound/DMSO dotted in black 384 well polystyrene plates. Reactions were started by addition of 10 μL of assay buffer containing […] Biotin-labeled Histone H3 peptide substrate: ART-K(Me1)-QTARKSTGGKAPRKQLA-GGK(Biotin) SEQ ID NO:1 (AnaSpec 64355) and incubated for 1 hour at 25° C. Reactions were stopped by addition of 10 μL 1× LANCE Detection Buffer (PerkinElmer CR97-100) supplemented with 1.5 nM Eu-anti-unmodified H3K4 Antibody (PerkinElmer TRF0404), and 225 nM LANCE Ultra Streptavidin (PerkinElmer TRF102) along with 0.9 mM Tranylcypromine-HCl (Millipore 616431). After stopping the reactions plates were incubated for 30 minutes and read on a PHERAstar FS plate reader (BMG Labtech).

`COC(=O)N(C)c1cc(-c2c(-c3ccc(C#N)cc3)nc(OC[C@@H]3CCCN(C)C3)c3nccn23)ccc1C`: the 50% inhibitory concentration (IC50) was under 50 nM.

As usually defined, the IC50 is the midpoint of a concentration-inhibition curve. A high value points to lower potency.
